Experimental data: patent publication US8703768B2, “Nitrogen containing heteroaryl compounds” (Hoffmann-La Roche Inc., priority 2010, dated 2014)

The compounds below were run against human PDE10A (Homo sapiens (Human), UniProt Q9Y233) (assay: human PDE10A full length Scintillation Proximity Assay (SPA)). Conditions: 50 nM cGMP and 50 nM [3H]-cGMP, 20 minutes at room temperature; read-out: PDE10A inhibition IC50.
Assay type: biochemical
How it was run: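 Radiometric SPA read-out: after 20 min at room temperature with [^3H]-cGMP/cGMP substrate, zinc sulphate (18 mM) bead stop reagent added and counts read after 1 h. Non-specific signal defined without enzyme; full-length protein used.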

Chain of human PDE10A (Q9Y233 other isoform, or with tags, fused parts or gaps): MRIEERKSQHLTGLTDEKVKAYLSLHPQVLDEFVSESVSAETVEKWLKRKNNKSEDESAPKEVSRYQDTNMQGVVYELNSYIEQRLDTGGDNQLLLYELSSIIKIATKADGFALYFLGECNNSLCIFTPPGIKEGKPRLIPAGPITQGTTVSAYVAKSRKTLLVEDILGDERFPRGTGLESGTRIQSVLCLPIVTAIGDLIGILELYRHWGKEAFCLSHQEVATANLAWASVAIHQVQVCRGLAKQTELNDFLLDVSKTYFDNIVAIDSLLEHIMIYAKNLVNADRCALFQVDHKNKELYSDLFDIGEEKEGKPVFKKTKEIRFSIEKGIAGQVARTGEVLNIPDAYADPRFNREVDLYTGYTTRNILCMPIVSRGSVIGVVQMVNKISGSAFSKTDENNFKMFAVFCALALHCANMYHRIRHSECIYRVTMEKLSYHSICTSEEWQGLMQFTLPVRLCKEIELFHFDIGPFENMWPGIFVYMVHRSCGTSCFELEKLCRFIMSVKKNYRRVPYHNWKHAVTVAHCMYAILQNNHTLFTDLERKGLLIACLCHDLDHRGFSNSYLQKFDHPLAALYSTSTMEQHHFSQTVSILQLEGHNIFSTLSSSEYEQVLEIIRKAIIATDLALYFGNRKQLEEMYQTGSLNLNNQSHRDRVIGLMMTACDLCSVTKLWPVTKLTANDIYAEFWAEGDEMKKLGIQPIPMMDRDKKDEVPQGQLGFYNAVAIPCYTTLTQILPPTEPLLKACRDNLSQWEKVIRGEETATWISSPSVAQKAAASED

Row | IC50 [nM] | SMILES
1 | 19.5 | CNC(=O)c1c(NC(=O)c2nc(C3CC3)cnc2Nc2cncnc2)cnn1CCC(F)(F)F [Example 173, 6-Cyclopropyl-3-(pyrimidin-5-ylamino)-pyrazine-2-carboxylic acid [5-methylcarbamoyl-1-(3,3,3-trifluoro-propyl)-1H-pyrazol-4-yl]-amide]
2 | 14.8 | Cn1ncc(NC(=O)c2nc(C3CC3)cnc2Nc2cncnc2)c1C(=O)N1CC(F)C1 [Example 174, 6-Cyclopropyl-3-(pyrimidin-5-ylamino)-pyrazine-2-carboxylic acid [5-(3-fluoro-azetidine-1-carbonyl)-1-methyl-1H-pyrazol-4-yl]-amide]
3 | 25 | CC(C)(O)CNC(=O)c1c(NC(=O)c2nc(C3CC3)cnc2Nc2cncnc2)cnn1CC(F)(F)F [Example 175, 6-Cyclopropyl-3-(pyrimidin-5-ylamino)-pyrazine-2-carboxylic acid [5-(2-hydroxy-2-methyl-propylcarbamoyl)-1-(2,2,2-trifluoro-ethyl)-1H-pyrazol-4-yl]-amide]
4 | 0.2 | CNC(=O)c1nc(C2CCCO2)ccc1NC(=O)c1nc(C2CC2)cnc1Nc1cncnc1 (centres unmarked) [Example 177, 6-Cyclopropyl-3-(pyrimidin-5-ylamino)-pyrazine-2-carboxylic acid [2-methylcarbamoyl-6-(tetrahydro-furan-2-yl)-pyridin-3-yl]-amide]
5 | 0.1 | CC(C)(O)CNC(=O)c1nc(C2CCCO2)ccc1NC(=O)c1nc(C2CC2)cnc1Nc1cncnc1 (centres unmarked) [Example 178, 6-Cyclopropyl-3-(pyrimidin-5-ylamino)-pyrazine-2-carboxylic acid [2-(2-hydroxy-2-methyl-propylcarbamoyl)-6-(tetrahydro-furan-2-yl)-pyridin-3-yl]-amide]
6 | 148 | Cn1ncc(NC(=O)c2nc(C3CC3)cnc2Nc2cncnc2)c1C(=O)N1CCOCC1 [Example 179, 6-Cyclopropyl-3-(pyrimidin-5-ylamino)-pyrazine-2-carboxylic acid [1-methyl-5-(morpholine-4-carbonyl)-1H-pyrazol-4-yl]-amide]
7 | 5.5 | CCc1ccc(NC(=O)c2nc(C3CC3)cnc2Nc2cncnc2)c(C(=O)NC)n1 [Example 180, 6-Cyclopropyl-3-(pyrimidin-5-ylamino)-pyrazine-2-carboxylic acid (6-ethyl-2-methylcarbamoyl-pyridin-3-yl)-amide]
8 | 0.4 | CCc1ccc(NC(=O)c2nc(C3CC3)cnc2Nc2cncnc2)c(C(=O)NCC(C)(C)O)n1 [Example 181, 6-Cyclopropyl-3-(pyrimidin-5-ylamino)-pyrazine-2-carboxylic acid [6-ethyl-2-(2-hydroxy-2-methyl-propylcarbamoyl)-pyridin-3-yl]-amide]
9 | 3.5 | CNC(=O)c1nc(C)ccc1NC(=O)c1nc(C2CC2)cnc1Nc1cncnc1 [Example 182, 6-Cyclopropyl-3-(pyrimidin-5-ylamino)-pyrazine-2-carboxylic acid (6-methyl-2-methylcarbamoyl-pyridin-3-yl)-amide]
10 | 0.3 | Cc1ccc(NC(=O)c2nc(C3CC3)cnc2Nc2cncnc2)c(C(=O)NCC(C)(C)O)n1 [Example 183, 6-Cyclopropyl-3-(pyrimidin-5-ylamino)-pyrazine-2-carboxylic acid [2-(2-hydroxy-2-methyl-propylcarbamoyl)-6-methyl-pyridin-3-yl]-amide]
11 | 162 | CNC(=O)c1c(NC(=O)c2nc(C(C)=O)cnc2Nc2cncnc2)cnn1C [Example 184, 6-Acetyl-3-(pyrimidin-5-ylamino)-pyrazine-2-carboxylic acid (1-methyl-5-methylcarbamoyl-1H-pyrazol-4-yl)-amide]
12 | 2690 | CCNC(=O)c1c(NC(=O)c2nc(C3CC3)cnc2Nc2cncnc2)sc2c1CCCC2 [Example 185, 6-Cyclopropyl-3-(pyrimidin-5-ylamino)-pyrazine-2-carboxylic acid (3-ethylcarbamoyl-4,5,6,7-tetrahydro-benzo[b]thiophen-2-yl)-amide]
13 | 8.2 | CNC(=O)c1c(NC(=O)c2nc(C(C)C)ncc2Nc2cccnc2)cnn1C [Example 186, 2-Isopropyl-5-(pyridin-3-ylamino)-pyrimidine-4-carboxylic acid (1-methyl-5-methylcarbamoyl-1H-pyrazol-4-yl)-amide]
14 | 63.8 | CNC(=O)c1c(NC(=O)c2nc(C(C)O)cnc2Nc2cncnc2)cnn1C (centres unmarked) [Example 187, 6-(1-Hydroxy-ethyl)-3-(pyrimidin-5-ylamino)-pyrazine-2-carboxylic acid (1-methyl-5-methylcarbamoyl-1H-pyrazol-4-yl)-amide]
15 | 51.7 | CNC(=O)c1c(NC(=O)c2nc(C(C)C)ncc2Nc2cccc(F)c2)cnn1C [Example 188, 5-(3-Fluoro-phenylamino)-2-isopropyl-pyrimidine-4-carboxylic acid (1-methyl-5-methylcarbamoyl-1H-pyrazol-4-yl)-amide]
16 | 144 | CNC(=O)c1c(NC(=O)c2nc(COC)ccc2Nc2cncnc2)cnn1C [Example 189, 6-Methoxymethyl-3-(pyrimidin-5-ylamino)-pyridine-2-carboxylic acid (1-methyl-5-methylcarbamoyl-1H-pyrazol-4-yl)-amide]

Row | IC50 [nM] | SMILES
17 | 24 | CNC(=O)c1c(NC(=O)c2nc(C(C)C)ncc2Nc2cncc(F)c2)cnn1C [Example 190, 5-(5-Fluoro-pyridin-3-ylamino)-2-isopropyl-pyrimidine-4-carboxylic acid (1-methyl-5-methylcarbamoyl-1H-pyrazol-4-yl)-amide]
18 | 470 | CNC(=O)c1c(NC(=O)c2nc(C(C)C)ncc2Nc2ccc(F)cc2)cnn1C [Example 191, 5-(4-Fluoro-phenylamino)-2-isopropyl-pyrimidine-4-carboxylic acid (1-methyl-5-methylcarbamoyl-1H-pyrazol-4-yl)-amide]
19 | 3.1 | CNC(=O)c1c(NC(=O)c2nc(C3CC3)cnc2Nc2cncnc2)cccc1OC [Example 192, 6-Cyclopropyl-3-(pyrimidin-5-ylamino)-pyrazine-2-carboxylic acid (3-methoxy-2-methylcarbamoyl-phenyl)-amide]
20 | 11.7 | CNC(=O)c1c(NC(=O)c2nc(C3CCC3)ncc2Nc2cncnc2)cnn1C [Example 193, 2-Cyclobutyl-5-(pyrimidin-5-ylamino)-pyrimidine-4-carboxylic acid (1-methyl-5-methylcarbamoyl-1H-pyrazol-4-yl)-amide]
21 | 5.5 | O=C(Nc1cccnc1C(=O)N1CCC1)c1nc(C2CC2)cnc1Nc1cncnc1 [Example 194, 6-Cyclopropyl-3-(pyrimidin-5-ylamino)-pyrazine-2-carboxylic acid [2-(azetidine-1-carbonyl)-pyridin-3-yl]-amide]
22 | 16.4 | O=C(Nc1cccnc1C(=O)N1CCCCC1)c1nc(C2CC2)cnc1Nc1cncnc1 [Example 195, 6-Cyclopropyl-3-(pyrimidin-5-ylamino)-pyrazine-2-carboxylic acid [2-(piperidine-1-carbonyl)-pyridin-3-yl]-amide]
23 | 22 | CNC(=O)c1c(Cl)cccc1NC(=O)c1nc(C2CC2)cnc1Nc1cncnc1 [Example 196, 6-Cyclopropyl-3-(pyrimidin-5-ylamino)-pyrazine-2-carboxylic acid (3-chloro-2-methylcarbamoyl-phenyl)-amide]
24 | 3.9 | CCNC(=O)c1c(NC(=O)c2nc(C3CC3)cnc2Nc2cncnc2)cnn1C [Example 197, 6-Cyclopropyl-3-(pyrimidin-5-ylamino)-pyrazine-2-carboxylic acid (5-ethylcarbamoyl-1-methyl-1H-pyrazol-4-yl)-amide]
25 | 2.5 | O=C(Nc1cccnc1C(=O)N1CCCC1)c1nc(C2CC2)cnc1Nc1cncnc1 [Example 198, 6-Cyclopropyl-3-(pyrimidin-5-ylamino)-pyrazine-2-carboxylic acid [2-(pyrrolidine-1-carbonyl)-pyridin-3-yl]-amide]
26 | 6.2 | CCN(C)C(=O)c1ncccc1NC(=O)c1nc(C2CC2)cnc1Nc1cncnc1 [Example 199, 6-Cyclopropyl-3-(pyrimidin-5-ylamino)-pyrazine-2-carboxylic acid [2-(ethyl-methyl-carbamoyl)-pyridin-3-yl]-amide]
27 | 426 | CNC(=O)c1c(NC(=O)c2nc(C3CC3)cnc2Nc2cnccn2)cnn1C [Example 200, 6-Cyclopropyl-3-(pyrazin-2-ylamino)-pyrazine-2-carboxylic acid (1-methyl-5-methylcarbamoyl-1H-pyrazol-4-yl)-amide]
28 | 11.5 | CCNC(=O)c1c(NC(=O)c2nc(C3CC3)cnc2Nc2cncnc2)cnn1CC [Example 201, 6-Cyclopropyl-3-(pyrimidin-5-ylamino)-pyrazine-2-carboxylic acid (1-ethyl-5-ethylcarbamoyl-1H-pyrazol-4-yl)-amide]
29 | 3.8 | CCn1ncc(NC(=O)c2nc(C3CC3)cnc2Nc2cncnc2)c1C(=O)NCC(C)C [Example 202, 6-Cyclopropyl-3-(pyrimidin-5-ylamino)-pyrazine-2-carboxylic acid (1-ethyl-5-isobutylcarbamoyl-1H-pyrazol-4-yl)-amide]
30 | 33.8 | CCN(C)C(=O)c1c(NC(=O)c2nc(C3CC3)cnc2Nc2cncnc2)cnn1C [Example 203, 6-Cyclopropyl-3-(pyrimidin-5-ylamino)-pyrazine-2-carboxylic acid [5-(ethyl-methyl-carbamoyl)-1-methyl-1H-pyrazol-4-yl]-amide]
31 | 52.5 | CCN(C)C(=O)c1ncncc1NC(=O)c1nc(C2CC2)cnc1Nc1cncnc1 [Example 204, 5-{[6-Cyclopropyl-3-(pyrimidin-5-ylamino)-pyrazine-2-carbonyl]-amino}-pyrimidine-4-carboxylic acid ethyl-methyl-amide]
32 | 90.1 | CN(C)C(=O)c1ncncc1NC(=O)c1nc(C2CC2)cnc1Nc1cncnc1 [Example 205, 5-{[6-Cyclopropyl-3-(pyrimidin-5-ylamino)-pyrazine-2-carbonyl]-amino}-pyrimidine-4-carboxylic acid dimethylamide]
